PubChem BioAssay AID330 (DTP/NCI, 2004)
Several values for one entry are separate records, joined by “and”; a condition that tells them apart may be missing. Equal entries are not always repeated. Toxic doses and inconclusive results are not listed. The calls were made as follows: active = survival T/C of 150% or more; inactive = T/C below 125% in these data. Square brackets hold non-standard residues; d marks the D form. Peptide text beside a SMILES is read from it. * marks the point of attachment. ξ: configuration not given here. Cbz = O=C(OCc1ccccc1)*; ξNva = CCCC(N)C(=O)O

Test system: P388 leukemia ip, CD2F1 mice, survival T/C
Assay: NCI In Vivo Anticancer Drug Screen. Data for tumor model P388 Leukemia (intraperitoneal) in CD2F1 (CDF1) mice
Settings: endpoint: median survival time, higher = longer survival
Outline: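 Mice carrying the transplanted tumor received test compound or vehicle. Survival was recorded in each group, and the value is the treated-group measurement divided by that of the vehicle-treated control group.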

[1] = dose: 100.0 mg/kg/injection, schedule: Q04DX003 (ip), vehicle: saline
[2] = dose: 200.0 mg/kg/injection, schedule: Q04DX003 (ip), vehicle: saline
[3] = dose: 60.0 mg/kg/injection, schedule: Q01DX005 (ip), vehicle: saline with Tween-80
[4] = dose: 120.0 mg/kg/injection, schedule: Q01DX005 (ip), vehicle: saline with Tween-80
[5] = dose: 240.0 mg/kg/injection, schedule: Q01DX005 (ip), vehicle: saline with Tween-80
[6] = dose: 50.0 mg/kg/injection, schedule: Q01DX005 (ip), vehicle: Klucel (hydroxypropylcellulose) (HPC)
[7] = dose: 50.0 mg/kg/injection, schedule: Q01DX009 (ip), vehicle: saline
[8] = dose: 100.0 mg/kg/injection, schedule: Q01DX005 (ip), vehicle: Klucel (hydroxypropylcellulose) (HPC)
[9] = dose: 100.0 mg/kg/injection, schedule: Q01DX009 (ip), vehicle: saline
[10] = dose: 200.0 mg/kg/injection, schedule: Q01DX005 (ip), vehicle: Klucel (hydroxypropylcellulose) (HPC)
[11] = dose: 200.0 mg/kg/injection, schedule: Q01DX009 (ip), vehicle: saline

Measured: T/C

O=C(NO)c1ccncc1
inactive: [1] 100 % of control | [2] 109 % of control | dose: 400.0 mg/kg/injection, schedule: Q04DX003 (ip), vehicle: saline 109 % of control

COC(=O)CC1(C(=O)OC)c2sc(-c3ccccc3OC)cc2N2CCCC21 (stereo not given)
inactive: dose: 0.63 mg/kg/injection, schedule: Q01DX009 (ip), vehicle: Klucel (hydroxypropylcellulose) (HPC) 106 % of control | dose: 1.25 mg/kg/injection, schedule: Q01DX009 (ip), vehicle: Klucel (hydroxypropylcellulose) (HPC) 102 % of control | dose: 2.5 mg/kg/injection, schedule: Q01DX009 (ip), vehicle: Klucel (hydroxypropylcellulose) (HPC) 102 % of control | dose: 5.0 mg/kg/injection, schedule: Q01DX009 (ip), vehicle: Klucel (hydroxypropylcellulose) (HPC) 100 % of control | dose: 10.0 mg/kg/injection, schedule: Q01DX009 (ip), vehicle: Klucel (hydroxypropylcellulose) (HPC) 105 % of control

COC1(C)O[C@@]2(C)c3ccccc3C(=O)[C@@]2(c2ccccc2)O1 (stereo not given in full)
inactive: [3] 104 % of control | [4] 97 % of control | [5] 97 % of control

O=C1NC(c2ccccc2)(c2ccccc2)C(=O)N1CCS
inactive: dose: 25.0 mg/kg/injection, schedule: Q04DX003 (ip), vehicle: Klucel (hydroxypropylcellulose) (HPC) 99 % of control and 106 % of control | dose: 50.0 mg/kg/injection, schedule: Q04DX003 (ip), vehicle: Klucel (hydroxypropylcellulose) (HPC) 100 % of control | dose: 100.0 mg/kg/injection, schedule: Q04DX003 (ip), vehicle: Klucel (hydroxypropylcellulose) (HPC) 100 % of control and 114 % of control | dose: 200.0 mg/kg/injection, schedule: Q04DX003 (ip), vehicle: Klucel (hydroxypropylcellulose) (HPC) 104 % of control and 108 % of control | dose: 400.0 mg/kg/injection, schedule: Q04DX003 (ip), vehicle: Klucel (hydroxypropylcellulose) (HPC) 112 % of control and 114 % of control

NC(N)=NCCCC(N)C(=O)NC(CCC(=O)O)C(=O)O (stereo not drawn) (H-Arg-Glu-OH; configuration not given here)
inactive: dose: 25.0 mg/kg/injection, schedule: Q01DX009 (ip), vehicle: saline 91 % of control | [6] 100 % of control | [7] 97 % of control | [8] 100 % of control | [9] 94 % of control | [10] 100 % of control | [11] 103 % of control | dose: 400.0 mg/kg/injection, schedule: Q01DX009 (ip), vehicle: saline 88 % of control

COc1cccc(C(=O)N/N=C(\C#N)c2cccc(OC)c2)c1
inactive: dose: 50.0 mg/kg/injection, schedule: Q01DX005 (ip), vehicle: saline with Tween-80 97 % of control | dose: 100.0 mg/kg/injection, schedule: Q01DX005 (ip), vehicle: saline with Tween-80 94 % of control

C[C@@H]1C[C@@H](O)[C@]2(O)O[C@@H]3C[C@@]4(C=O)[C@@H](CC=C5[C@@H]4CC[C@]4(C)C(C6=CC(=O)OC6)CC[C@]54O)C[C@H]3O[C@@H]2O1 (stereo not given in full)
inactive: dose: 1.75 mg/kg/injection, schedule: Q01DX005 (ip), vehicle: saline with Tween-80 94 % of control | dose: 3.5 mg/kg/injection, schedule: Q01DX005 (ip), vehicle: saline with Tween-80 100 % of control | dose: 7.0 mg/kg/injection, schedule: Q01DX005 (ip), vehicle: saline with Tween-80 98 % of control

OC1OC2COC(c3ccccc3)OC2C(O)C1O (stereo not given)
inactive: dose: 25.0 mg/kg/injection, schedule: Q01DX005 (ip), vehicle: water 100 % of control | dose: 50.0 mg/kg/injection, schedule: Q01DX005 (ip), vehicle: water 100 % of control | dose: 100.0 mg/kg/injection, schedule: Q01DX005 (ip), vehicle: water 100 % of control | dose: 200.0 mg/kg/injection, schedule: Q01DX005 (ip), vehicle: water 101 % of control | dose: 400.0 mg/kg/injection, schedule: Q01DX005 (ip), vehicle: water 107 % of control | dose: 800.0 mg/kg/injection, schedule: Q01DX005 (ip), vehicle: water 95 % of control

COc1cc(CCNC(=O)CCN2C(=O)CCC2=O)cc(OC)c1OC
inactive: [7] 104 % of control | [9] 100 % of control | [11] 103 % of control

CN(C)CCCSc1n[nH]c(=O)[nH]c1=O
inactive: dose: 25.0 mg/kg/injection, schedule: Q01DX005 (ip), vehicle: distilled water + alcohol 111 % of control | dose: 50.0 mg/kg/injection, schedule: Q01DX005 (ip), vehicle: distilled water + alcohol 104 % of control | dose: 100.0 mg/kg/injection, schedule: Q01DX005 (ip), vehicle: distilled water + alcohol 95 % of control | dose: 200.0 mg/kg/injection, schedule: Q01DX005 (ip), vehicle: distilled water + alcohol 92 % of control

Cc1ccc(NC(=O)c2cc3ccccc3cc2O)c(C)c1.Cc1ccc(NC(=O)c2cc3ccccc3cc2[O-])c(C)c1.[Ni+2]
inactive: dose: 1.56 mg/kg/injection, schedule: Q01DX009 (ip), vehicle: saline with Tween-80 109 % of control | dose: 3.12 mg/kg/injection, schedule: Q01DX009 (ip), vehicle: saline with Tween-80 89 % of control | dose: 6.12 mg/kg/injection, schedule: Q01DX009 (ip), vehicle: saline with Tween-80 97 % of control | dose: 6.25 mg/kg/injection, schedule: Q01DX009 (ip), vehicle: saline 108 % of control

O=S(=O)(CS(=O)(=O)c1ccc(Cl)c(Cl)c1)c1ccc(Cl)c(Cl)c1
inactive: dose: 60.0 mg/kg/injection, schedule: Q01DX005 (ip), vehicle: Klucel + Tween-80 94 % of control | dose: 120.0 mg/kg/injection, schedule: Q01DX005 (ip), vehicle: Klucel + Tween-80 102 % of control

CCC(C)C(NC(=O)OCc1ccccc1)C(=O)ON1C(=O)CCC1=O (stereo not given)
inactive: dose: 66.0 mg/kg/injection, schedule: Q04DX003 (ip), vehicle: saline with Tween-80 100 % of control | dose: 100.0 mg/kg/injection, schedule: Q04DX003 (ip), vehicle: saline with Tween-80 104 % of control | dose: 150.0 mg/kg/injection, schedule: Q04DX003 (ip), vehicle: saline with Tween-80 109 % of control

COc1ccc2c(c1OC(=O)NCCCl)-c1cccc3c1C(C2)N(CCOC(=O)NCCCl)CC3 (stereo not given)
inactive: dose: 6.25 mg/kg/injection, schedule: Q04DX003 (ip), vehicle: saline + alcohol 109 % of control | dose: 12.5 mg/kg/injection, schedule: Q04DX003 (ip), vehicle: saline + alcohol 102 % of control | dose: 25.0 mg/kg/injection, schedule: Q04DX003 (ip), vehicle: saline + alcohol 96 % of control | dose: 50.0 mg/kg/injection, schedule: Q04DX003 (ip), vehicle: saline + alcohol 106 % of control | dose: 100.0 mg/kg/injection, schedule: Q04DX003 (ip), vehicle: saline + alcohol 98 % of control | dose: 200.0 mg/kg/injection, schedule: Q04DX003 (ip), vehicle: saline + alcohol 105 % of control

CCCC(NC(=O)OCc1ccccc1)C(=O)NCC(=O)NCC(=O)OC (stereo not drawn) (Cbz-[ξNva]-Gly-Gly-OMe)
inactive: [6] 110 % of control | [8] 113 % of control | [10] 113 % of control

C[N+](C)(C)CN1C(=O)c2ccccc2C1=O
inactive: dose: 50.0 mg/kg/injection, schedule: Q04DX003 (ip), vehicle: saline 100 % of control | [1] 104 % of control | [2] 95 % of control

CCCCc1ccc(NC(=O)On2c3ccccc3c3ccccc32)cc1
inactive: [6] 96 % of control | [8] 94 % of control | [10] 95 % of control

CC12C(=O)NC(c3ccncc3)(c3ccccc31)C1C(=O)N(c3ccccc3)C(=O)C12 (stereo not given)
inactive: [3] 96 % of control | [4] 94 % of control | [5] 94 % of control

COc1c(C#N)c2c(c(OC)c1OC)-c1ccc(OC)c(=O)cc1[C@@H](NC(C)=O)CC2
inactive: dose: 3.12 mg/kg/injection, schedule: Q01DX009 (ip), vehicle: Klucel (hydroxypropylcellulose) (HPC) 113 % of control
